This test deals with T1, ferroportin tagged at the C-terminus with green fluorescent protein (Fpn-GFP) (Mus musculus, UniProt Q9JHI9).
T1 construct: expressed in transfected cells; host or cells: ECR293/Fpn-GFP (stably transfected, ponasterone-inducible)
T1 sequence (Q9JHI9 1-570): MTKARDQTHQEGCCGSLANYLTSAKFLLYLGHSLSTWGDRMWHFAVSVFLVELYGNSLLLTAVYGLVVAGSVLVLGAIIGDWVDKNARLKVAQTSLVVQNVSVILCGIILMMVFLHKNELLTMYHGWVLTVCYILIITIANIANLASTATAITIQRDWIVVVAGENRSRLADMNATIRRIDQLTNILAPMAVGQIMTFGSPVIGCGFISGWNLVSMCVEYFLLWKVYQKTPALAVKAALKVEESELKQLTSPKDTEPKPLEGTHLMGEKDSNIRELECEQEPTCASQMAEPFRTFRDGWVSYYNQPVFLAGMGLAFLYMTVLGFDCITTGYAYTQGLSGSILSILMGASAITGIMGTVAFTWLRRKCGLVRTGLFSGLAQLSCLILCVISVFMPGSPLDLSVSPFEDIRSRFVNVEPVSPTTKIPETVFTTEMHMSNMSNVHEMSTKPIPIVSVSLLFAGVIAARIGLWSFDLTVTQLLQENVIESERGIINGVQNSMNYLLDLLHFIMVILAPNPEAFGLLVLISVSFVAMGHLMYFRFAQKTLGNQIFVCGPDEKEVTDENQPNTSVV
As to the kind of experiment: Flow cytometry of ferroportin-GFP degradation in ECR293/Fpn-GFP cells. The following applies: for DC50: read-out: EC50 (the source's name); for hepcidin activity relative to Hep25 (in words): FIGS. 1-4. The test is classed as cell-based. How it is done:
In vitro activity may be measured by the dose-dependent loss of fluorescence of cells engineered to display ferroportin fused to green fluorescent protein as in Nemeth et al. (2006) Blood 107:328-33. Aliquots of cells are incubated for 24 hours with graded concentrations of a reference preparation of Hep25 or a mini-hepcidin. As provided herein, the EC50 values are provided as the concentration of a given compound (e.g. peptide) that elicits 50% of the maximal loss of fluorescence generated by the reference Hep25 preparation.
Mutational studies indicate that C326, the cysteine residue at position 326 of human ferroportin, is the critical residue involved in binding hepcidin. Thus, various N-terminal fragments of Hep25 containing a thiol, i.e. Hep 4-7, Hep3-7, Hep3-8, Hep3-9, Hep1-7, Hep1-8, Hep1-9, and Hep1-10 C7A, were chemically synthesized, refolded and their activities relative to Hep25 were assayed using flow-cytometric quantitation of the ferroportin-GFP degradation, iron efflux estimation based on measurements of cellular ferritin, and radioisotopic iron efflux studies.
The activity of peptides of the present invention was measured by flow cytometry as previously described. See Nemeth et al. (2006) Blood 107:328-333, which is herein incorporated by reference. ECR293/Fpn-GFP, a cell line stably transfected with a ponasterone-inducible ferroportin construct tagged at the C-terminus with green fluorescent protein was used. See Nemeth et al. (2004) Science 306:2090-2093, which is herein incorporated by reference. Briefly, the cells were plated on poly-D-lysine coated plates in the presence of 20 μM FAC, with or without 10 μM ponasterone. After 24 hours, ponasterone was washed off, and cells were treated with peptides for 24 hours. Cells were then trypsinized and resuspended at 1×10^6 cells/ml, and the intensity of green fluorescence was analyzed by flow cytometry. Flow cytometry was performed on FAC SCAN (fluorescence activated cell scanner) Analytic Flow Cytometer (Becton Dickinson, San Jose, Calif.) with […] version 3.3 software (Becton Dickinson). Cells not induced with ponasterone to express Fpn-GFP were used to establish a gate to exclude background fluorescence. Cells induced with ponasterone, but not treated with any peptides, were used as the positive control. Each peptide was tested over the range of concentrations (0, 0.01, 0.03, 0.1, 0.3, 1, 3 and 10 μM). Each peptide treatment was repeated independently 3 to 6 times. For each concentration of peptide, the results were expressed as a fraction of the maximal activity (FHep25) of Hep25 (in the dose range 0.01-10 μM), according to the formula 1−((Fx−FHep25)/(Funtreated−FHep25)), where F was the mean of the gated green fluorescence and x was the peptide.

Where [1] appears, read: Table 1, 24 h peptide treatment, 50% of maximal loss of fluorescence by Hep25.
[2] abbreviates: read-out: EC50 (nM) in vitro, Table 3.
Setting [3] is: Table 1, 24 h peptide treatment, 50% of maximal loss of fluorescence by Hep25, read-out: EC50.
Where [4] appears, read: ferroportin-GFP internalization, FIG. 3.

Read-outs that look alike come from different tables or passages of the source. Starred links: 1 amine or outer side, 2 acyl side, 3 side chain; linkers in the order of their positions; H or OH if unused. Positions of bridges follow the written chain, without caps; N, C: chain ends. Non-standard residues stand in square brackets, D forms with d. Residues, ends and D or L forms follow the SMILES beside them. No end group written: not given here. *: point of attachment. PEG12 = NCCOCCOCCOCCOCCOCCOCCOCCOCCOCCOCCOCCOCCC(=O)O; X1 = O=C(C[C@H](N[*:1])C(c1ccccc1)c1ccccc1)[*:2]; dDip = N[C@@H](C(=O)O)C(c1ccccc1)c1ccccc1; Oic = O=C(O)[C@@H]1C[C@@H]2CCCC[C@@H]2N1; Dip = N[C@H](C(=O)O)C(c1ccccc1)c1ccccc1; Palmitoyl = CCCCCCCCCCCCCCCC(=O)*; X2 = O=C(C1CCC(CN[*:1])CC1)[*:2]; Cysteamide = C(CS[*:3])N[*:1]; Chg = N[C@H](C(=O)O)C1CCCCC1; Phg = N[C@H](C(=O)O)c1ccccc1; Tle = CC(C)(C)[C@H](N)C(=O)O; Inp = O=C(O)C1CCNCC1 Bounds are passed on as bounds.

As to `CC[C@H](C)[C@H](NC(=O)[C@H](CS)NC(=O)[C@@H](NC(=O)[C@@H]1CCCN1C(=O)C[C@H](NC(=O)[C@H](Cc1c[nH]cn1)NC(=O)[C@@H](NC(=O)[C@@H](N)CC(=O)O)[C@@H](C)O)C(c1ccccc1)c1ccccc1)[C@@H](C)CC)C(=O)N[C@@H](Cc1ccccc1)C(N)=O` [F4bhDpa] (H-DTH[X1]PICIF-NH2; N-terminus assumed), under setting [1], the DC50 turned out to be 0.08 µM. The term EC50 denotes the concentration at which the effect is half-maximal. For `N=C(N)NCCC[C@@H]1NC(=O)C2CCC(CC2)CNC(=O)[C@@H](C(c2ccccc2)c2ccccc2)NC(=O)[C@@H]2CCCN2C(=O)[C@@H](N)CSSCCNC(=O)[C@H](C(c2ccccc2)c2ccccc2)NC(=O)C2CCN(CC2)C(=O)C2CCC(CC2)CNC1=O` [PR-2] (H-CP[dDip][X2]R[X2][Inp][Dip]-Cysteamide; disulfide 1-C), the EC50 (read-out: EC50) is 2000 nM. As for `CC(C)(C)[C@H](NC(=O)[C@@H](N)CC(=O)O)C(=O)N[C@@H](Cc1c[nH]cn1)C(=O)N[C@H](C(=O)N1[C@H](C(=O)N[C@H](C(=O)N[C@@H](CS)C(=O)N[C@H](C(=O)N[C@@H](Cc2ccccc2)C(N)=O)C2CCCCC2)C2CCCCC2)C[C@@H]2CCCC[C@@H]21)c1ccccc1` [PR10] (H-D[Tle]H[Phg][Oic][Chg]C[Chg]F-NH2), the DC50 under setting [1] was more than 3 µM. `CC[C@H](C)[C@H](NC(=O)[C@H](CS)NC(=O)[C@@H](NC(=O)[C@@H]1CCCN1C(=O)[C@@H](NC(=O)[C@@H](N)CC(=O)O)C(c1ccccc1)c1ccccc1)[C@@H](C)CC)C(=O)N[C@@H](Cc1ccccc1)C(N)=O` [PR40] (H-D[Dip]PICIF-NH2): under “read-out: EC50, Table 1, 24 h peptide treatment, 50% of maximal loss of fluorescence by Hep25”, the EC50 was 70 nM. On to `CCCCCCCCCCCCCCCC(=O)NCCOCCOCCOCCOCCOCCOCCOCCOCCOCCOCCOCCOCCC(=O)N[C@@H](C(=O)N[C@@H](C(=O)N[C@H](CS)C(=O)N[C@@H](C(=O)N1CCC[C@@H]1C(=O)N[C@@H](C(=O)N[C@H](Cc1c[nH]cn1)C(N)=O)C(c1ccccc1)c1ccccc1)[C@H](C)CC)[C@H](C)CC)C(c1ccccc1)c1ccccc1` [PR50, R4-Dpa-I-C-I-P-Dpa-H] ({Palmitoyl-PEG12}-[dDip][dI][dC][dI][dP][dDip][dH]-NH2), for which the EC50 under setting [2] is less than 10 nM. Take “T2A: Hep25 with alanine substitution T2A (DAHFPICIFCCGCCHRSKCGMCCKT; disulfide (positions not given here); not fully specified (C-terminus); also: four disulfide bonds, pairing not given here; UniProt P81172 60-84, looked up, variant T2A)”: the “hepcidin activity relative to Hep25 (in words)” value is reported as “did not substantially impact hepcidin activity”. In the case of `CCCCCCCCCCCCCCCC(=O)NCCOCCOCCOCCOCCOCCOCCOCCOCCOCCOCCOCCOCCC(=O)N[C@H](Cc1ccccc1)C(=O)N[C@@H](C(=O)N[C@H](CS)C(=O)N[C@@H](C(=O)N1CCC[C@@H]1C(=O)N[C@@H](C(=O)N[C@H](Cc1c[nH]cn1)C(=O)N[C@@H](C(=O)N[C@H](CC(=O)O)C(N)=O)[C@H](C)O)C(c1ccccc1)c1ccccc1)C(C)C)C(C)C` [PR51, R4-F-V-C-V-P-Dpa-H-T-D] ({Palmitoyl-PEG12}-[dF][dV][dC][dV][dP][dDip][dH][dT][dD]-NH2), the EC50 under setting [2] stood at 100 nM. The same measure, in the same setting: the value for `CCCCCCCCCCCCCCCC(=O)NCCOCCOCCOCCOCCOCCOCCOCCOCCOCCOCCOCCOCCC(=O)N[C@H](Cc1ccccc1)C(=O)N[C@@H](C(=O)N[C@H](CS)C(=O)N[C@@H](C(=O)N1CCC[C@@H]1C(=O)N[C@@H](C(=O)N[C@H](Cc1c[nH]cn1)C(N)=O)C(c1ccccc1)c1ccccc1)[C@H](C)CC)[C@H](C)CC` [PR49, R4-F-I-C-I-P-Dpa-H] ({Palmitoyl-PEG12}-[dF][dI][dC][dI][dP][dDip][dH]-NH2) was less than 10 nM. Turning to `N=C(N)NCCC[C@@H]1NC(=O)C2CCC(CC2)CNC(=O)[C@@H](C(c2ccccc2)c2ccccc2)NC(=O)C2CCN(CC2)C(=O)[C@@H](N)CSSCCNC(=O)[C@H](C(c2ccccc2)c2ccccc2)NC(=O)C2CCN(CC2)C(=O)C2CCC(CC2)CNC1=O` [PR-1], under “read-out: EC50”, the EC50 was determined as 1500 nM. Consider `C[C@@H](O)[C@H](NC(=O)[C@@H](N)CC(=O)O)C(=O)N[C@@H](Cc1c[nH]cn1)C(=O)N[C@H](C(=O)N1CCC[C@H]1C(=O)N[C@@H](CS)C(=O)N[C@@H](CS)C(=O)N[C@@H](CS)C(=O)N[C@H](C(N)=O)C(c1ccccc1)c1ccccc1)C(c1ccccc1)c1ccccc1` [PR46] (H-DTH[Dip]PCCC[Dip]-NH2; N-terminus assumed), for which the EC50 under setting [3] stood at 80 nM. Regarding `N=C(N)NCCC[C@@H]1NC(=O)C2CCC(CC2)CNC(=O)[C@@H](C(c2ccccc2)c2ccccc2)NC(=O)[C@H]2CCCN2C(=O)[C@@H](N)CSSCCNC(=O)[C@H](C(c2ccccc2)c2ccccc2)NC(=O)C2CCN(CC2)C(=O)C2CCC(CC2)CNC1=O` [PR-3] (H-C[dP][dDip][X2]R[X2][Inp][Dip]-Cysteamide; disulfide 1-C), the EC50 (read-out: EC50) was 1000 nM. With DTHFPIAIFC-NH2 [Hep10], the “hepcidin activity relative to Hep25 (in words)” value is given as “quite active”. Moreover, under setting [4], the “potency relative to Hep25 on a mass basis, times less potent” value is “about 4 times” and the “potency relative to Hep25 on a molar basis, times less potent” value was “about 10 times”. Consider `CC[C@H](C)[C@H](NC(=O)[C@@H]1CSSC[C@H](N)C(=O)N[C@@H](CC(=O)O)C(=O)N[C@@H]([C@@H](C)O)C(=O)N[C@@H](Cc2c[nH]cn2)C(=O)N[C@@H](Cc2ccccc2)C(=O)N2CCC[C@H]2C(=O)N[C@@H]([C@@H](C)CC)C(=O)N1)C(=O)N[C@@H](Cc1ccccc1)C(N)=O` [Cyc-1] (H-CDTHFPICIF-NH2; disulfide 1-8; N-terminus assumed), for which the EC50 under setting [3] amounted to 300 nM. Regarding `CC(C)(C)[C@H](NC(=O)[C@@H](N)CC(=O)O)C(=O)N[C@@H](Cc1c[nH]cn1)C(=O)N1CCC[C@H]1C(=O)N1[C@H](C(=O)N[C@H](C(=O)N[C@@H](CS)C(=O)N[C@H](C(=O)N[C@@H](Cc2ccccc2)C(N)=O)C2CCCCC2)C2CCCCC2)C[C@@H]2CCCC[C@@H]21` [PR11] (H-D[Tle]HP[Oic][Chg]C[Chg]F-NH2), the DC50 under setting [1] was more than 3 µM. Turning to `N=C(N)NCCC[C@@H]1NC(=O)C2CCC(CC2)CNC(=O)[C@@H](C(c2ccccc2)c2ccccc2)NC(=O)CNC(=O)[C@@H](N)CSSCCNC(=O)[C@H](C(c2ccccc2)c2ccccc2)NC(=O)C2CCN(CC2)C(=O)C2CCC(CC2)CNC1=O` [PR-4] (H-CG[dDip][X2]R[X2][Inp][Dip]-Cysteamide; disulfide 1-C), the EC50 (read-out: EC50) is 2000 nM.

For the molecule `CCCCCCCCCCCCCCCC(=O)NCCOCCOCCOCCOCCOCCOCCOCCOCCOCCOCCOCCOCCC(=O)N[C@@H](C(=O)N[C@@H](C(=O)N[C@H](CS)C(=O)N[C@@H](C(=O)N1CCC[C@@H]1C(=O)N[C@@H](C(=O)N[C@H](Cc1c[nH]cn1)C(=O)N[C@@H](C(=O)N[C@H](CC(=O)O)C(N)=O)[C@H](C)O)C(c1ccccc1)c1ccccc1)[C@H](C)CC)[C@H](C)CC)C(c1ccccc1)c1ccccc1` [PR48, R4-Dpa-I-C-I-P-Dpa-H-T-D] ({Palmitoyl-PEG12}-[dDip][dI][dC][dI][dP][dDip][dH][dT][dD]-NH2), the EC50 under setting [2] was determined as 50 nM.

Source of the values: US9896481B2, “Modified mini-hepcidin peptides and methods of using thereof” (priority 2011, dated 2018).
